In US11938113B2, “Epigallocathechin gallate solution” (ASSISTANCE PUBLIQUE—HOPITAUX DE PARIS, priority 2017, dated 2024):
Values joined by “and” are separate entries in the source; they are usually repeats but may differ in a detail not shown here. Equal values may be shown once. Read-outs that look alike come from different tables or passages of the source.

Legend:
[1] = Solubility of EGCG in sucrose solution versus EGCG alone in water; type: physicochemical; conditions: after 4 hours of dissolution
Excerpt: The solubility of EGCG in a solution containing 10% by weight of sucrose is compared to that of EGCG alone in water.

[2] = Stress stability testing (thermal gradient 25 to 135° C., HPLC of residue); type: physicochemical; conditions: heating 25 to 135° C. at 5° C. per min
Description: Both solutions were subjected to progressive heating ranging from 25 to 135° C. at a rate of 5° C. per minute. At end of heating, the residues formed from each solution are illustrated in FIG. 2A and are analyzed by high performance liquid chromatography.
1 mL of the reference standard suspension and a formulation of the invention disclosed Table 1 before were subjected to a thermal gradient program ranging from 25 to 135° C. at a rate of 5° C. per min. At the end of this exposure, part of each of the residues formed was deposited on a glass slide and the remaining part analyzed by high performance liquid chromatography.

[3] = at normal condition, in water; cited from earlier work
[4] = after 1-h ultra violet irradiation; cited from earlier work

solubility of EGCG [1]: ≤ 5000 µg/mL | appearance of residue at the end of heating [2]: black | chromatographic analysis of residue (EGCG remaining) ([2]; HPLC): practically no more EGCG
Compound: O=C(O[C@@H]1Cc2c(O)cc(O)cc2O[C@@H]1c1cc(O)c(O)c(O)c1)c1cc(O)c(O)c(O)c1 [EGCG, Epigallocatechin gallate]
solubility of EGCG [3]: 4.6 g/L and 10 mM | decomposition of EGCG [4]: 70%
